Data reported in patent US12331040B2 (Karyopharm Therapeutics Inc., priority 2013, dated 2025).

What was measured:
Test in all cases: MTT cell proliferation assay
Format in all cases: cell-based
[1] = tested on: A549 cells; conditions: Homo sapiens, 72-hour MTT
In short: (§1)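 72-h MTT proliferation; 5,000-10,000 cells/well, overnight attachment; cpd 1 nM–30 μM, 8 concs; MTT ~4 h, formazan solubilized, OD490; % inhibition vs negative control, mean±SE, usually duplicate.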

[2] = tested on: ANBL-6 cells; conditions: Homo sapiens, 72-hour MTT
In short: as §1

[3] = tested on: ARPE-19 cells; conditions: Homo sapiens, 72-hour MTT
In short: as §1

[4] = tested on: BT-474 cells; conditions: Homo sapiens, 72-hour MTT
In short: as §1

[5] = tested on: BT-549 cells; conditions: Homo sapiens, 72-hour MTT
In short: as §1

[6] = tested on: C6 cells; conditions: Rattus norvegicus, 72-hour MTT
In short: as §1

[7] = tested on: CAPAN-1 cells; conditions: Homo sapiens, 72-hour MTT
In short: as §1

[8] = tested on: CaOV3 cells; conditions: Homo sapiens, Caov-3, 72-hour MTT
In short: as §1

[9] = tested on: Calu-3 cells; conditions: Homo sapiens, 72-hour MTT
In short: as §1

[10] = tested on: Calu-6 cells; conditions: Homo sapiens, 72-hour MTT
In short: as §1

[11] = tested on: DoHH-2 cells; conditions: Homo sapiens, 72-hour MTT
In short: as §1

[12] = tested on: HCC-1143 cells; conditions: Homo sapiens, HCC1143, 72-hour MTT
In short: as §1

[13] = tested on: HCT116.1 cells; conditions: 72-hour MTT
In short: as §1

[14] = tested on: HeLa cells; conditions: Homo sapiens, 72-hour MTT
In short: as §1

[15] = tested on: Hs738.st cells; conditions: 72-hour MTT
In short: as §1

[16] = tested on: IMR-90 cells; conditions: Homo sapiens, 72-hour MTT
In short: as §1

[17] = tested on: K562 cells; conditions: Homo sapiens, 72-hour MTT
In short: as §1

[18] = tested on: MCF7 cells; conditions: Homo sapiens, 72-hour MTT
In short: as §1

[19] = tested on: MDA-MB-175 cells; conditions: 72-hour MTT
In short: as §1

[20] = tested on: MDA-MB-361 cells; conditions: Homo sapiens, 72-hour MTT
In short: as §1

[21] = tested on: MDA-MB-415 cells; conditions: Homo sapiens, 72-hour MTT
In short: as §1

[22] = tested on: MM1R cells; conditions: MM.1R, 72-hour MTT
In short: as §1

[23] = tested on: MOLT4 cells; conditions: Homo sapiens, MOLT-4, 72-hour MTT
In short: as §1

[24] = tested on: NCI-H1299 cells; conditions: Homo sapiens, 72-hour MTT
In short: as §1

[25] = tested on: NCI-H2170 cells; conditions: Homo sapiens, 72-hour MTT
In short: as §1

[26] = tested on: NCI-H508 cells; conditions: Homo sapiens, 72-hour MTT
In short: as §1

[27] = tested on: NCI-H520 cells; conditions: Homo sapiens, 72-hour MTT
In short: as §1

[28] = tested on: NCI-H820 cells; conditions: 72-hour MTT
In short: as §1

[29] = tested on: NHEK cells; conditions: 72-hour MTT
In short: as §1

[30] = tested on: PATU-8988S cells; conditions: PaTuÂ 8988s, 72-hour MTT
In short: as §1

[31] = tested on: PATU-8988T cells; conditions: Homo sapiens, 72-hour MTT
In short: as §1

[32] = tested on: RWPE-1 cells; conditions: Homo sapiens, 72-hour MTT
In short: as §1

[33] = tested on: SHSY5Y cells; conditions: Homo sapiens, SH-SY5Y, 72-hour MTT
In short: as §1

[34] = tested on: SK-CO-1 cells; conditions: Homo sapiens, 72-hour MTT
In short: as §1

[35] = tested on: SW-1116 cells; conditions: Homo sapiens, 72-hour MTT
In short: as §1

[36] = tested on: SW-403 cells; conditions: Homo sapiens, 72-hour MTT
In short: as §1

[37] = tested on: SW-837 cells; conditions: Homo sapiens, SW837, 72-hour MTT
In short: as §1

[38] = tested on: SW-900 cells; conditions: Homo sapiens, SW900, 72-hour MTT
In short: as §1

[39] = tested on: TF-1 cells; conditions: Homo sapiens, 72-hour MTT
In short: as §1

[40] = tested on: THP1 cells; conditions: Homo sapiens, THP-1, 72-hour MTT
In short: as §1

[41] = tested on: WI-38 cells; conditions: Homo sapiens, 72-hour MTT
In short: as §1

For `Nc1ccc(/C=C/C(=O)NCc2cc3cc(-c4ccc(C(=O)N5CCC(F)(F)CC5)cn4)cc(C(F)(F)F)c3o2)cn1` [Compound 585, (E)-3-(6-aminopyridin-3-yl)-N-((5-(5-(4,4-difluoropiperidine-1-carbonyl)pyridin-2-yl)-7-(trifluoromethyl)benzofuran-2-yl)methyl)acrylamide], which IC50 [1] is on record?
Its IC50 is 570 nM.

What about the IC50 [2] of the same molecule?
Its IC50 is 1010 nM.

What about the IC50 [3] of the same molecule?
The IC50 was 780 nM.

What about the IC50 [4] of the same molecule?
The IC50 was 6470 nM.

And the IC50 [5]?
Its IC50 is 1530 nM.

What about the IC50 [6] of the same molecule?
Its IC50 is greater than 10000 nM.

And the IC50 [7]?
The IC50 was 90 nM.

What about the IC50 [8] of the same molecule?
Its IC50 is 2220 nM.

And the IC50 [9]?
The IC50 was 330 nM.

And the IC50 [10]?
Its IC50 is 350 nM.

What about the IC50 [11] of the same molecule?
The IC50 was 90 nM.

What about the IC50 [12] of the same molecule?
The IC50 was 210 nM.

And the IC50 [13]?
Its IC50 is greater than 10000 nM.

And the IC50 [14]?
The IC50 was 60 nM.

And the IC50 [15]?
The IC50 was 450 nM.

What about the IC50 [16] of the same molecule?
Its IC50 is 4000 nM.

And the IC50 [17]?
The IC50 was 1090 nM.

And the IC50 [18]?
Its IC50 is 700 nM.

And the IC50 [19]?
The IC50 was greater than 10000 nM.

And the IC50 [20]?
Its IC50 is greater than 10000 nM.

What about the IC50 [21] of the same molecule?
Its IC50 is 1020 nM.

And the IC50 [22]?
The IC50 was 190 nM.

And the IC50 [23]?
The IC50 was 40 nM.

And the IC50 [24]?
The IC50 was 190 nM.

What about the IC50 [25] of the same molecule?
Its IC50 is 1260 nM.

What about the IC50 [26] of the same molecule?
Its IC50 is 1460 nM.

And the IC50 [27]?
Its IC50 is 20 nM.

And the IC50 [28]?
The IC50 was 2840 nM.

What about the IC50 [29] of the same molecule?
The IC50 was 10400 nM.

What about the IC50 [30] of the same molecule?
The IC50 was 470 nM.

And the IC50 [31]?
The IC50 was 540 nM.

What about the IC50 [32] of the same molecule?
Its IC50 is 4 nM.

And the IC50 [33]?
Its IC50 is 120 nM.

And the IC50 [34]?
The IC50 was 1190 nM.

What about the IC50 [35] of the same molecule?
The IC50 was 970 nM.

And the IC50 [36]?
Its IC50 is 380 nM.

And the IC50 [37]?
Its IC50 is 600 nM.

What about the IC50 [38] of the same molecule?
Its IC50 is greater than 10000 nM.

And the IC50 [39]?
The IC50 was 60 nM.

What about the IC50 [40] of the same molecule?
The IC50 was 20 nM.

And the IC50 [41]?
Its IC50 is 220 nM.
